# Test results from patent publication US20240293405A1, “(1H-PYRROLO[2,3-B]PYRIDIN-1-YL)PYRIMIDIN-2-YL-AMINO-PHENYL-ACRYLAMIDE INHIBITORS OF EGFR FOR USE IN THE TREATMENT OF BRAIN TUMORS” (Dana-Farber Cancer Institute, Inc., priority 2021, published 2024).
# Entries after “also recorded” stand apart in the source; their conditions may differ. Read-outs that look alike come from different tables or passages of the source.
# Assays:
# BT112 cells = assay: Cell viability, patient-derived GBM line BT112; settings: Homo sapiens, 72 h
# Description: (§1) Primary human glioblastoma lines BT112, BT179 and BT333 were maintained in NeuroCult proliferation medium (human) (StemCell Technologies) with 20 ng/ml EGF, 10 ng/ml FGF and 0.0002% Heparin.
# 293-EGFRvIII cells = assay: Cell viability of 293-EGFRvIII cells (CellTiter-Glo); type: cell-based, human; settings: for IC50: Homo sapiens, read-out: IC50, viability of 293-EGFRvIII cells
# Description: Cells were seeded in 96-well plates at a density of 1,000 cells per well and treated with two-fold serial dilutions of compounds with a starting concentration of 20 μM. Cell viability was assessed after three days of treatment by CellTiter-Glo (Promega). Curve fitting analysis and IC50 value determination were performed using GraphPad Prism 8.
# [1] = Skin toxicity in mice (visual observation); type: in vivo; settings: Compound 1 10-50 mg/kg/day vs osimertinib 10-25 mg/kg/day
# From the text: . (osmertinib, FIG. 6A; Compound 1, FIG. 6B).
# [2] = Oral dog dose-range toxicity study; type: in vivo
# Description: In the dog dose-range study, Compound 1 was given to male and female beagle dogs orally by gavage either once (30, 100, 600, 1000 mg/kg) or once daily for 14 days (30, 100, 300 mg/kg/day).
# The HNSTD was estimated to be 100 mg/kg/day in this study.
# BT333 cells = assay: Cell viability, patient-derived GBM line BT333; settings: Homo sapiens, 72 h
# Description: as §1
# [3] = tested on: EGFRvIII, ERK1/2 and S6RP phosphorylation; assay: Phosphorylation in CPEvIII neurosphere cultures (western blot); type: cell-based, mouse; settings: CPEvIII neurospheres, 1 day, dose-dependent
# Description: FIG. 5B is the western blot analysis of primary mouse CPEvIII cells that were treated with Compound 1 for 1 day.
# Western blot analysis was performed as described previously (Ni, J., et al. (2012). Cancer discovery 2, 425-433; Ni, J., et al. (2016). Nature medicine 22, 723-726; Ni, J., et al. (2017). Neurooncology 19, 22-30). Anti-pEGFR-1068 (#3777), anti-pEGFR-1173 (#4407), anti-EGFR (#4267), anti-pERK1/2 (#9101), anti-ERK1/2 (#9102), anti-S6RP (#2211), and anti-S6RP (#2217) antibodies were purchased from Cell Signaling Technology. Anti-a-Tubulin antibody was purchased from Sigma.
# Neural stem cells (NSCs) from E14.5 embryonic mice (Cdkn2a-null; Ptenf/f) striata were isolated and cultured as previously described (Rietze, R. L., and Reynolds, B. A. (2006). Methods in enzymology 419, 3-23). NSCs were infected twice with adenovirus expressing Cre recombinase (AdCre; MOI50) (University of Iowa) to knock out floxed Pten. Cells were then transduced with retrovirus expressing EGFRvIII (pBabe-puro-EGFRvIII) (from Dr. Charles Stiles, DFCI) and selected with 1 μg/ml puromycin. The resulting cells (Cdkn2anull; Ptennull; EGFRvIII, denominated CPEvIII) can form a glioma after grafted into the mouse brain. Tumors were then isolated and mechanically dissociated for expansion in vitro and in vivo. […]
structure (smiles),measurement,setting,value
"C=CC(=O)Nc1cc(Nc2nccc(-n3ccc4cccnc43)n2)c(OC)cc1N(C)CCN(C)C [Compound 1, N-(5-((4-(1H-pyrrolo[2,3-b]pyridin-1-yl)pyrimidin-2-yl)amino)-2-((2-(dimethylamino)ethyl)(methyl)amino)-4-methoxyphenyl)acrylamide]",IC50,BT112 cells,2040 nM
same,fold more active than erlotinib (viability),293-EGFRvIII cells; HEK293-EGFRvIII cells,3 fold
same,fold more active than gefitinib (viability),293-EGFRvIII cells; HEK293-EGFRvIII cells,10 fold
same,IC50,"293-EGFRvIII cells; 72 h, 3 days treatment, CellTiter-Glo",1480 nM
same,IC50,293-EGFRvIII cells; unit as printed in b643 for Compound 1,1480 nM
same,skin toxicity (visual observation),[1],Lower Skin Toxicity than Osimertinib
same,tolerability of a single oral dose,[2]; 30 to 1000 mg/kg,well tolerated
same,HNSTD,"[2]; 14 days oral, estimated",100 mg/kg/day
same,IC50,BT333 cells,3280 nM
same,"phosphorylation of EGFRvIII, ERK1/2 and S6RP",[3],markedly reduced phosphorylation; also recorded: Marked
